The values below are quoted from earlier work in publication PMC4258517 (Antiviral research, 2014).

In general, IC50 refers to the point on the concentration scale where inhibition reaches its midpoint.

Data set [1] has as its system BKV. The conditions noted are these: HK2 cells, 15 μM; ref Wright et al., 2009.
The test system of data set [2] is SV40. Conditions: 100 μM; ref Wright et al., 2009.
The test system of data set [3] is patients with PML. Conditions: trial prematurely terminated, ref Clifford et al., 2013.
Data set [4] concerns SV40 large T antigen ATPase. Conditions: ref Seguin et al., 2012b.
For data set [5] the following is noted: read-out: MTS assay IC50; cytotoxicity; ref Seguin et al., 2012b. (Formazan colour is commonly taken as a measure of viable cells.)

For the molecule `CC1=C(C(=O)OCc2ccccc2)C(c2ccc(-c3ccccc3)cc2)NC(=O)N1CCCCCC(=O)O` (stereo not shown) [MAL2-11B], in data set [1], the “reduction of BKV viral load” value is “one log reduction”. For the same molecule, the “reduction in SV40 DNA replication” value in data set [2] is on record as “fivefold reduction”. In the case of `OC(c1cc(C(F)(F)F)nc2c(C(F)(F)F)cccc12)C1CCCCN1` (stereo not shown) [Mefloquine], the clinical trial outcome in data set [3] was “lack of efficacy”. Take `Oc1c(Cl)cc(Cl)cc1Sc1cc(Cl)cc(Cl)c1O` [bithionol]: the “mechanism of inhibition on SV40 protein” value in data set [4] is reported as “competitive”. Also, the concentration for half-maximal inhibition (IC50) in data set [5] was 68 µM.

On to `Oc1c(Cl)cc(Cl)c(Cl)c1Cc1c(O)c(Cl)cc(Cl)c1Cl` [hexachlorophene], for which the “mechanism of inhibition on SV40 protein” value in data set [4] is “competitive”. Also, the half-maximal inhibitory concentration (IC50) in data set [5] is 55 µM.
